“And” between values parts separate entries of the source, which are not always exact repeats. Identical values can stand only once.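 How tested: cells in 96-well plates exposed to compound for 48 hours at five concentrations. GI50 = concentration required for 50% inhibition of growth. The concentration for full growth arrest is given as TGI.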
Columns and labels:
Experiment in all cases: growth of human tumour cells (NCI), 48 h
SF-268 CNS = test system: SF-268 CNS
DMS 114 small cell lung = test system: DMS 114 small cell lung
IGROV1 ovarian = test system: IGROV1 ovarian
HOP-62 NSCLC = test system: HOP-62 NSCLC
M14 melanoma = test system: M14 melanoma
NCI-H522 lung = test system: NCI-H522 lung
KM20L2 colon = test system: KM20L2 colon
SK-OV-3 ovarian = test system: SK-OV-3 ovarian
COLO 205 colon = test system: COLO 205 colon
CAKI-1 renal = test system: CAKI-1 renal

Row | SMILES | TGI (SF-268 CNS) | TGI (DMS 114 small cell lung) | TGI (IGROV1 ovarian) | TGI (HOP-62 NSCLC) | TGI (M14 melanoma) | TGI (NCI-H522 lung) | TGI (KM20L2 colon) | TGI (SK-OV-3 ovarian) | TGI (COLO 205 colon) | TGI (CAKI-1 renal) | GI50 (SF-268 CNS) | GI50 (DMS 114 small cell lung) | GI50 (IGROV1 ovarian) | GI50 (HOP-62 NSCLC) | GI50 (M14 melanoma) | GI50 (KM20L2 colon) | GI50 (SK-OV-3 ovarian) | GI50 (COLO 205 colon) | GI50 (CAKI-1 renal) | GI50 (NCI-H522 lung)
1 | CCCN(CCCCC(NC(C)=O)C(=O)NCc1ccccc1)C(=O)NC (stereo unspecified) | > 100 µM | > 100 µM | > 100 µM | > 100 µM | > 100 µM | > 100 µM | > 100 µM | > 100 µM | > 100 µM | > 100 µM | – | – | – | – | – | – | – | – | – | –
2 | Cn1nnnc1[N-]Cc1ccccc1.[Au+].c1ccc([PH+](c2ccccc2)c2ccccc2)cc1 | 14 µM | 4.83 µM | 8.16 µM | 30 µM | 3.83 µM | – | 29.8 µM | 30.3 µM | 5.81 µM | 4.99 µM | 3.45 µM | 1.53 µM | 2.43 µM | 16 µM | 1.67 µM | 8.56 µM | 16.6 µM | 2.29 µM | 2.29 µM | –
3 | COC(=O)/C(=N/NC(C)(C)C)C(C(=O)C=C(C)C)C(=O)C(=O)Nc1ccc(Cl)cc1C (stereo unspecified) | > 100 µM | > 100 µM | > 100 µM | > 100 µM | > 100 µM | > 100 µM | > 100 µM | > 100 µM | > 100 µM | > 100 µM | – | – | – | – | – | – | – | – | – | –
4 | CCOC(=O)c1c2ccc(/C=C/C(=O)OC)ccc-2c(C(=O)OCC)c1N | 9.68 µM | > 100 µM | > 100 µM | – | > 100 µM | > 100 µM | > 100 µM | > 100 µM | > 100 µM | > 100 µM | – | – | – | – | – | – | – | – | – | –
5 | CC(SC1=CC(=O)c2c(O)ccc(O)c2C1=O)C(=O)O (stereo unspecified) | > 75.1 µM | 44 µM | > 68.6 µM | > 100 µM | > 75.8 µM | 9.79 µM | > 100 µM | > 100 µM | > 60.3 µM | 72.2 µM | – | – | – | – | – | – | – | – | – | –
6 | CN(C)CCNC(=O)c1cc([N+](=O)[O-])cc2ccc(-c3ccccc3)nc12 | 50 µM | 28.6 µM | 25.6 µM | 38.1 µM | > 100 µM | 17.2 µM | 31.2 µM | 25.5 µM | 21.6 µM | > 40.4 µM | – | – | – | – | – | – | – | – | – | –
7 | COc1ccc(N=Cc2ccc(N(CCC#N)CCC#N)cc2)cc1 | > 100 µM | > 100 µM | > 100 µM | > 100 µM | > 100 µM | > 100 µM | > 100 µM | > 100 µM | > 100 µM | > 100 µM | – | – | – | – | – | – | – | – | – | –
8 | Nc1ccc2c(c1)[O][Sn]([c]1ccccc1)([c]1ccccc1)[O]C2=O | 21.2 µM | 18.7 µM | 29.2 µM | 34.9 µM | 25.4 µM | 2.36 µM | 31.9 µM | 43.8 µM | 13.2 µM | 10.5 µM | 7.63 µM | 6.68 µM | 12.4 µM | 19.6 µM | 11.2 µM | 18 µM | 14.7 µM | 6.58 µM | 4.89 µM | 0.592 µM
9 | [Cl][Sn]([c]1ccccc1)[c]1ccccc1 | 16.1 µM | 19.4 µM | 43.7 µM | 40.7 µM | 24.4 µM | 1.89 µM | 30.4 µM | 32.7 µM | 38.2 µM | 8.98 µM | 4.1 µM | 3.47 µM | 17.7 µM | 22.9 µM | 8.24 µM | 14.9 µM | 18.4 µM | 7.45 µM | 2.54 µM | 0.352 µM
10 | Cn1cc(NC(=O)c2cc(NC(=O)CCCCCC(=O)Nc3cc(C(=O)Nc4cc(C(=O)NCCC(=N)N)n(C)c4)n(C)c3)cn2C)cc1C(=O)NCCC(=N)N | > 100 µM | > 100 µM | > 100 µM | – | > 100 µM | – | > 100 µM | > 100 µM | > 100 µM | > 100 µM | – | – | – | – | – | – | – | – | – | –
11 | c1ccc2c(NCCCCCCCCNc3c4ccccc4nc4ccccc34)c3ccccc3nc2c1 | 2.1 µM | 2.42 µM | 1.8 µM | 2.24 µM | 2.52 µM | 1.88 µM | 2.55 µM | 2.71 µM | 1.61 µM | 2.18 µM | – | – | – | – | – | – | – | – | – | –
12 | CCCN(CCC)c1c([N+](=O)[O-])cc(S(N)(=O)=O)cc1[N+](=O)[O-] | 32.8 µM | 40.3 µM | 19.6 µM | 32 µM | 30.9 µM | 31.5 µM | 37.4 µM | 31.8 µM | 43.1 µM | 26.4 µM | – | – | – | – | – | – | – | – | – | –
13 | c1cc2c(cnc3cscc32)s1 | > 100 µM | > 100 µM | – | > 100 µM | > 100 µM | > 100 µM | – | – | – | > 100 µM | – | – | – | – | – | – | – | – | – | –
14 | CCOC(OC1=C(C#N)CCC1)C(CC)[Se]c1ccccc1 (stereo unspecified) | 38.7 µM | 10.4 µM | 71 µM | > 100 µM | 32.3 µM | 26.8 µM | 64.7 µM | > 100 µM | 53.9 µM | > 100 µM | – | – | – | – | – | – | – | – | – | –
15 | CC(O)C(NC(=O)C(CS)NC(=O)C(CO)NC(=O)C(CCCCN)NC(=O)C(Cc1c[nH]c2ccccc12)NC(=O)C(Cc1ccc(O)cc1)NC(=O)C(CS)NC(=O)C(N)Cc1ccccc1)C(N)=O (stereo unspecified) | > 25 µM | 87.9 µM | > 25 µM and 44 µM | > 25 µM and 63.4 µM | > 25 µM | > 25 µM | 55.8 µM | > 25 µM | > 25 µM and 66.2 µM | > 25 µM and 29.6 µM | – | – | 20.2 µM | – | – | – | – | 20.7 µM | 1.08 µM | –
16 | CCc1cccc(C)c1NC(=O)CC1Sc2ccccc2NC1=O (stereo unspecified) | > 100 µM | > 100 µM | > 100 µM | 61.3 µM | > 100 µM | 61.5 µM | > 100 µM | > 100 µM | > 100 µM | > 100 µM | – | – | – | – | – | – | – | – | – | –
17 | CC(=O)O/C(C)=C\C(=O)O/N=C(\N)c1ccc(C)cc1 | 91.6 µM | 45 µM | > 100 µM | > 100 µM | 93.1 µM | 49.1 µM | > 100 µM | > 100 µM | > 100 µM | > 100 µM | – | – | – | – | – | – | – | – | – | –
18 | C=CCN(N=O)C(=O)N(CCC)CCCC(NC(C)=O)C(=O)NCc1ccccc1 (stereo unspecified) | > 100 µM | > 100 µM | > 100 µM | > 100 µM | > 100 µM | > 100 µM | > 100 µM | > 100 µM | > 100 µM | > 100 µM | – | – | – | – | – | – | – | – | – | –
19 | CC[C@@]1(OC(=O)CCC(=O)O)C(=O)OCc2c1cc1n(c2=O)Cc2cc3ccccc3nc2-1 | > 60.9 µM | 1.08 µM | 5.98 µM | 0.181 µM | 1.41 µM | 3.72 µM | 33.8 µM | 14.2 µM | 8.49 µM | 0.612 µM | – | – | – | – | – | – | – | – | – | –
20 | Cc1ccc(C)c(NC(=O)/C(=N\NC(N)=S)C(C#N)c2ccccc2)c1 (stereo unspecified) | > 100 µM | > 100 µM | > 100 µM | > 100 µM | > 100 µM | > 100 µM | > 100 µM | > 100 µM | > 100 µM | > 100 µM | – | – | – | – | – | – | – | – | – | –
21 | COc1cc2ccc3c4cc(OC)c(OCc5ccccc5)cc4cnc3c2cc1OC | > 100 µM | > 100 µM | > 100 µM | > 100 µM | > 100 µM | > 100 µM | > 100 µM | > 100 µM | > 100 µM | > 100 µM | – | – | – | – | – | – | – | – | – | –
22 | CCCCCCCCCCCCC(SCCNC(=O)CCNC(=O)C(O)C(C)(C)COP(=O)(O)OP(=O)(O)OCC1OC(n2cnc3c(N)ncnc32)C(O)C1OP(=O)(O)O)C(=O)NCC(N)=O (stereo unspecified) | > 100 µM | > 100 µM | > 100 µM | > 100 µM | > 100 µM | > 100 µM | > 100 µM | 98.2 µM | > 100 µM | – | – | – | – | – | – | – | – | – | – | –
23 | Cc1c(C(=O)CC(=O)C(=O)NC2C3CC4CC(C3)CC2C4)[n+](=O)c2ccccc2n1[O-] (stereo unspecified) | > 100 µM | > 100 µM | > 100 µM | > 100 µM | > 100 µM | > 100 µM | > 100 µM | > 100 µM | > 100 µM | > 100 µM | – | – | – | – | – | – | – | – | – | –
24 | c1ccc(COc2ccc3[nH]c4c(ncc5[nH]c6ccccc6c54)c3c2)cc1 | 34.6 µM | 38.3 µM | 18.9 µM | 30.5 µM | 26.7 µM | 31.9 µM | 20.4 µM | 32.9 µM | 47.1 µM | 47.5 µM | – | – | – | – | – | – | – | – | – | –
25 | O=C(N=Nc1c(O)[nH]c2ccccc12)c1ccccc1O | > 100 µM | > 100 µM | – | > 100 µM | > 100 µM | > 100 µM | > 100 µM | 46.6 µM | > 100 µM | – | – | – | – | – | – | – | – | – | – | –
26 | O=c1oc2c3ccc4ccccc4c3n(Cc3nc4ccccc4[nH]3)c2c2ccccc12 | > 100 µM | > 100 µM | > 100 µM | 75.3 µM | > 100 µM | > 100 µM | > 100 µM | > 100 µM | > 100 µM | > 100 µM | – | – | – | – | – | – | – | – | – | –
27 | c1c[nH]c(Cc2ncc(Cc3cnc[nH]3)[nH]2)n1 | > 100 µM | 58.6 µM | 85 µM | 98.6 µM | 36.7 µM | > 100 µM | > 100 µM | 86.2 µM | > 100 µM | > 100 µM | – | – | – | – | – | – | – | – | – | –
28 | CC(C)(C)N=CN1CCC(C(c2ccccc2)c2ccccc2)CC1 | > 100 µM | > 100 µM | > 100 µM | > 100 µM | – | – | 32.2 µM | – | 34.2 µM | > 100 µM | – | – | – | – | – | – | – | – | – | –
29 | CCCCS(=N)(=O)CC[C@H](N)C(=O)O (stereo partly specified) | 5000 µM and > 10000 µM | > 5000 µM | 4980 µM and 6370 µM | > 10000 µM | > 5620 µM | 351 µM and 51.9 µM | > 5000 µM | > 10000 µM | > 10000 µM | 5000 µM and > 1330 µM | > 10000 µM | – | 336 µM | > 7620 µM | > 5620 µM | – | > 10000 µM | > 10000 µM | > 1080 µM | > 20.5 µM

— PubChem BioAssay (NCI)
